Laboratory results from patent publication US10232043B2, “Photoactivated molecules for light-induced modulation of the activity of electrically excitable cells and methods of using the same” (UNIVERSITY OF SOUTHERN CALIFORNIA, priority 2015, dated 2019).
Entries after “also recorded” stand apart in the source; their conditions may differ.

How the values were obtained:
[1] = system: whole-mount retinas from RCS rats; test: Whole-mount retina multi-electrode recording; format: cell-based, rat; conditions: photoreceptor-degenerate retina, 100 micromolar for 30 minutes, 480 nm
From the text: FIG. 26 illustrates data from whole-mount retinas from RCS rats. […] Each bin represents the frequency of spikes for 1 second. Before Rubpy treatment (14A), illumination at 480 nm elicited minimal change in spike frequency. […] Downward arrows mark the time of 100 ms (1st) and 1 second (2nd to fourth) light stimuli
The retina will be freshly dissected from Royal College of Surgeons (RCS) rats (9 months or older to ensure total loss of photoreceptors). The whole-mount retina will then be placed onto a multi-electrode array with the ganglion cell layer side facing the electrodes and is held down on the array using a lightly weighted porous membrane. Extracellular field potentials are recorded from 15 or 75 μm diameter electrodes using an MEA1060-Up amplifier and MC Rack software (Multi-Channel Systems). The activity of the retinal in response to illumination is monitored before and after PVN incubation. The retina is continuously perfused with oxygenated (95% O2, 5% CO2), heated (32C) Ames' Medium for baseline activity. The retina is then perfused with Ames' Medium containing PVN for 30 min to 1 hr, followed by 10 min wash with regular Ames' Medium before recording in Ames' Medium with 5-10 mM ascorbate. The retina will be illuminated by white LED light through a bandpass excitation filter (460-500 nm) with durations of 100 μs, 1 ms, 10 ms, 100 ms, […] and 30 s. […]

RCS rats [2] = test: Extracellular recording from superior colliculus after intravitreal injection; format: in vivo, rat
From the text: FIGS. 27C-27F depict data related to administration of Rubpy-C17. White light was used for illumination in panels A, C, and D, while blue light (450 nm) was used in panels B, E, and F.
(§1) This finding was reproduced in 3 of 3 RCS rats injected with Rubpy-C17, and in 2 of 2 control (sham injection) RCS rats.

RCS rats [3] = test: Pupillary light response after eye injection; format: in vivo, rat
From the text: FIG. 28 illustrates the pupillary light response in RCS rats.
as §1

[4] = system: INS, HEK293T and chromaffin cells; test: Imaging RubpyC17 in live cells (membrane integration); format: cell-based, rat, human, mouse
Protocol: Cells were imaged at 1-3 days after plating. The glass-bottomed chambers with adherent cells were washed twice with PBS and then filled with standard extracellular solution consisting of 140 mM NaCl, 2.8 mM KCl: 10 mM HEPES, 1 mM MgCl2, 2 mM CaCl2, and 10 mM glucose, pH adjusted to 7.2-7.4 and osmolarity adjusted to 290-310 mOsm. The chamber was then mounted on an Olympus IX70 inverted microscope stage for imaging, using a Cascade 512B EMCCD camera, operated by Metamorph software. Initial imaging was done with, cells in extracellular solution without RubpyC17, first under brightfield to evaluate cell health and morphology, then under widefield argon ion laser illumination at 488 nm (Coherent, Innova 90-5, Santa Clara, Calif.), to evaluate autofluorescence. Next, the extracellular solution was removed and replaced with extracellular solution containing the RubpyC17 compound (10 μM in <0.01% DMSO, final concentrations). Cell images were then acquired with illumination at 488 nm (collected with a long-pass red emission filter). For electrophysiological experiments, RubpyC17 compound was added to the extracellular solution (2-10 μM in <0.01% DMSO, final concentrations as indicated) and cells were incubated for 1.5-45 min, as indicated, then washed with extracellular solution without RubpyC17. Some chromaffin cells were also exposed continuously to 490-900 nM RubpyC17-containing extracellular solution.
Illustrated here are rat insulinoma INS cells (see FIG. 17C, top), human embryonic kidney (HEK293T) cells (see FIG. 17C, middle), and primary cultured mouse chromaffin cells (see FIG. 17C, bottom). […] All cell types preserved morphology for at least 10 minutes. […] One embodiment of the possible light-induced electron transfer is depicted in FIG. 2.

[5] = system: mouse adrenal chromaffin cells; test: Perforated patch clamp, light-triggered action potentials; format: cell-based
Protocol: Action potentials in chromaffin cells were monitored using perforated patch clamp electrophysiology in current-clamp mode, using an EPC10 amplifier and Pulsemaster data acquisition software (HEKA electronics). A coverslip containing mouse chromaffin cells was transferred to a recording chamber and perfused with extracellular solution. Extracellular solution consists of 140 mM NaCl, 2.8 mM KCl, 10 mM HEPES, 1 mM MgCl2, 2 mM CaCl2, 10 mM glucose, pH adjusted to 7.3, and osmolarity adjusted to 290-300 mOsm. Intracellular solution consisted of 145 mM KCl, 10 mM NaCl, 1 mM MgCl2, and 10 mM HEPES, pH adjusted to 7.3 and osmolarity adjusted to 290-300 mOsm. Perforation solution was prepared by adding 4.5 μl of 125 mg/ml stock of amphoterecin B (Sigma) in DMSO to 1.8 mls of intracellular solution, and homogenizing for 540 s. Perforation was achieved within 3-10 min following gigaseal formation. Series resistances were in the range of 8-22 Mohm. Light stimulation in the blue spectrum originated from a xenon lamp source with an irradiance value of 0.480 mE s^−1 m^−2 through a 470/40 nm bandpass excitation filter. The duration of illumination varied and is indicated by bars on figures.
The behavior of excitable cells (cells capable of firing action potentials) treated with RubpyC17 was next investigated. Perforated patch clamp recording was performed on, mouse adrenal chromaffin cells pretreated with 450-900 nM RubpyC17 for 15-30 minutes before beginning electrophysiological recordings.

HEK293T cells = test: Voltage-clamp membrane current under light; format: cell-based, human; conditions: approximately −80 mV
Protocol: To examine whether light-activated RubpyC17 can directly interact and open or block endogenous ion channels, HEK293T cells were preincubated with RubpyC17, and patch-clamped in a voltage-clamp configuration. Voltage-clamp configuration allowed the cells to be clamped at a potential where most voltage-gated ion channels are closed (approximately −80 mV). […] The current-voltage relationship (see FIGS. 21C and 21D) as well as the steady-state voltage-dependent activation curves of RubpyC17-treated chromaffin cells in voltage-clamp mode before and during light illumination (see FIG. 21E).

Compound: CCCCCCCCCCCCCCCCCc1ccnc(-c2cc(C)ccn2)c1.F[P-](F)(F)(F)(F)F.F[P-](F)(F)(F)(F)F.[Ru+2].c1ccc(-c2ccccn2)nc1.c1ccc(-c2ccccn2)nc1 [RubpyC17, [Ru(bpy)2(bpy-C17)](PF6)2]
- light-induced action potential firing / spike frequency ([1]; listed as Rubpy): spike frequency increased
- light-induced action potential firing / spike frequency ([1]; listed as Rubpy-C17): respond to illumination by firing action potentials
- rats in which the finding was reproduced (RCS rats [2]; RCS rats injected with Rubpy-C17): 3 of 3
- time after injection with light-induced SC electrical responses (RCS rats [2]; eye injection, RCS rats): up to 3 days
- light-elicited electrical activity in superior colliculus field recording (RCS rats [2]; intravitreal, final concentration 100 μM, 30 minutes later, blind RCS rats): elicited reproducible and stereotypical electrical activity
- pupillary light reflex in injected eye (RCS rats [3]; RCS rat, not in non-injected eye): vigorous pupillary light reflex was observed; also recorded: pupil constricts
- time of pupillary light reflex (RCS rats [3]; injected eye): < 3 s
- time for which all cell types preserved morphology ([4]; 10 μM RubpyC17): at least 10 minutes
- incorporation into cell membranes (plasma membrane-localized luminescence) ([4]; 10 μM in bath, INS, HEK293T, mouse chromaffin cells): rapidly and stably incorporates into mammalian cell membranes
- membrane luminescence after RubpyC17 removal from the bath solution ([4]; at 10 minutes after removal): still observed
- light effect on action potential firing ([5]; 900 nM RubpyC17 pretreatment, 5 mM ascorbate): triggered action potentials or increased the rate of action potential firing
- action potential firing rate of a single cell ([5]; 2 μM for 1.5 min, ascorbate changed for ferricyanide): light-induced increase and then light-induced decrease
- reversal of firing effect after light illumination terminated ([5]; chromaffin cells): slow, gradual reversal; also recorded: slowly reversed
- shape of action potential waveforms under light ([5]; chromaffin cells): no change in the shape of action potential waveforms
- light effect on rate of action potential firing ([5]; ferricyanide 100 μM): decreased the rate of action potential firing
- effect of increasing ferricyanide on action potential firing ([5]; ferricyanide from 100 to 200 μM): further suppressed action potential firing
- light-induced changes in membrane current (HEK293T cells): did not exhibit light-induced changes in membrane current
